We go through one compound from patent publication US20240216900A1, “SABRE CATALYSTS CONTAINING FLUORINATED CARBON CHAINS FOR DELIVERY OF METAL-FREE MRI CONTRAST AGENTS” (The U.S.A., as represented by the Secretary, Department of …, priority 2022, published 2024).

Structures are written as SMILES.

The assay can be described thus: Relaxation dynamics of hyperpolarized [1-13C]pyruvate (build-up time Tb and T1). The note with it: 0.4 μT. The text has this:
In addition, the relaxation dynamics of the [1-^13C]pyruvate were also studied.
In addition, relaxation dynamics at earth field and 1.8 T are about the same as a non-fluorinated SABRE catalyst T1=28.9±1.6 s and 66.5±7 s, respectively.

On to `CC(=O)C(=O)O` [[1-^13C]pyruvate, sodium [1-^13C]pyruvate], for which the “total P13C (bound+free) build-up time Tb” value worked out at 6.6 ± 3.0 s (Example 7: Example 4 catalyst, DMSO, methanol); 3.0 ± 0.8 s (Example 25: Example 4 catalyst, DMSO, NFBME/MeOD fluorous mixture); 3.8 ± 0.6 s (Example 31: Example 4 catalyst, DMSO, CD3OD/Novec 7100); 8.9 ± 2.5 s (Example 32: Example 4 catalyst, PTMSO, CD3OD/Novec 7100).
